According to patent publication US11903917B2, “MEK-inhibitor for the treatment of viral and bacterial infections” (priority 2017, dated 2024):

Tests used:
[1] = WST-Assay (cell viability); format: cell-based; conditions: human, A549 cells, FIG. 17C
Method: A549 cells were seeded in a 96-well flat-bottom tissue plate (Greiner, Germany) and were grown overnight. […] Thereafter, 10 μl WST-1 reagent (Roche, Germany) was added to the culture medium and incubated for four hours. During this time, the stable tetrazolium salt WST-1 was cleaved to a soluble formazan by metabolically active cells in the culture. After this incubation period, the formazan dye formed was quantitated with ELISA reader at 405 nm. The measured absorbance directly correlated to the number of viable cells.

[2] = tested on: Streptococcus pneumoniae strain D39 wt (serotype 2); assay: Over-night growth of Streptococcus pneumoniae (OD600, bacterial titers); format: cell-based; conditions: over night treatment
Method: (§1) Similar to S. aureus, the majority of Streptococcus pneumoniae strains express eukaryotic-like serine/threonine kinases, such as PknB, which are highly conserved between different genera. Additionally, these kinases share high homology to cellular MAP kinases (e.g. ERK, JNK, p38). […] Thus, the impact of PD-0184264 on different strains of Streptococci pneumonia was analyzed. Streptococcus pneumoniae strains can be divided into different serotypes, which differ in their virulence and overall pathogenicity. To test for a serotype- or strain-independent effect, we used the encapsulated strains D39 and TIGR4, which are both virulent, but belong to different serotypes. […] Then, the OD600 was measured again (Results shown in FIG. 11A) and dilution series were objected to BHI agar plates to determine bacterial titers (Results shown in FIG. 11B).

[3] = tested on: Streptococcus pneumoniae strain TIGR4 (serotype 4); assay: as above; format: cell-based; conditions: over night treatment
Method: as §1

A549 cells = assay: A549 cell viability (trypan blue) and LDH release; format: cell-based, human; conditions: 1-100 μM, 24 and 48 hours
Method: To rule out that the reduction in viral and intracellular bacterial replication was a result of a cytotoxic effect of PD-0184264 on A549 cells, cell viability in presence of increasing concentrations was monitored for 24 and 48 hours. Additionally, a LDH-Assay was performed to determine membrane rupture due to inhibitor treatment. […] A549 cells were treated for 24 (as shown in FIGS. 15A and C) or 48 (as shown in FIGS. 15B and D) hours with increasing concentrations of PD-0184264 (1, 5, 10, 20, 50 or 100 μM). After the incubation times, supernatants were taken for measurement of LDH release (shown in FIGS. 15C, D) using the CytoSelect LDH Cytotoxicity Assay Kit according to the manufacturer's instructions. Additionally, viable cells were counted by staining with trypan blue. Cell viability was normalized to DMSO-treated cells and is shown as % viability. […] Statistical significance was calculated by one-way ANOVA followed by Dunnett's multiple comparisons test (*p<0.05; **p<0.01; […]***p<0.001).

[4] = tested on: influenza virus strain A/Regensburg/D6/2009 (RB1, H1N1 pdm09); assay: Example 1: virus titer in the lung of infected mice, AVICEL plaque assay; format: in vivo, C57BL/6 mice
Method: 8 weeks old C57BL/6 mice (five per group) were infected with 1.5×10^5 PFU (5×MLD50) of the influenza virus strain A/Regensburg/D6/2009, (RB1, H1N1 pdm09). […] All animals received a volume of 200 μl per os. Mice were sacrificed 24 h post infection and lungs were weighed, transferred into a Lysing Matrix D tube (MP Bio) and BSS (buffered salt solution) in an amount of the 10-fold volume of the lung was applied to the samples. Organs were shredded using the FastPrep FP 120 (Savant). To remove the cell debris the homogenates were centrifuged for 15 min at 2000 rpm and the supernatant collected. The determination of virus titer in homogenates was performed using the AVICEL® plaque assay. Results are presented in FIG. 1 as virus titer (log 10) pfu/ml (left) or % virus titer (right). Virus titer was determined by two investigators independently. Mean values from all titrations were presented.

S. aureus strain 6850 = assay: Bacterial growth under heat stress (42° C., 6 h) after inhibitor treatment; format: cell-based, Staphylococcus aureus; conditions: 20 μM over night, then 42° C. for 6 h, strain 6850, vs solvent
Method: (§2) As the kinase is known to play an important role in bacterial stress resistance, bacterial growth under heat stress was monitored after treatment of the bacteria with the inhibitor PD-0184264. S. aureus strain 6850 and MRSA strain USA300 were treated over night with either solvent or 20 μM of the PD-0184264. The next day subcultures with the same amount of bacteria were prepared (confirmed by OD600 and plating on BHI agar) and further incubated at 42° C. for 6 h. Bacterial titers were then calculated via plating of serial dilutions on BHI agar plates. […] This is both observed for the methicillin-sensitive strain 6850 (black bars) as well as for the MRSA strain USA300 (grey bars). Impaired stress tolerance in the presence of the inhibitor is another indication that PD-0184264 directly targets the kinase PknB, which is an important mediator of stress resistance. In summary, the data provide strong circumstantial evidence, that PD-0184264 elicits its antibacterial action by inhibition of the bacterial kinase PknB.

MRSA strain USA300 [5] = assay: as above; format: cell-based, Staphylococcus aureus; conditions: 20 μM over night, then 42° C. for 6 h, MRSA USA300, vs solvent
Method: as §2

S. aureus 6850 = assay: Time-of-addition assay, bacterial titers at 0, 3 and 6 h, then medium exchange; format: cell-based, Staphylococcus aureus
MRSA strain USA300 [6] = assay: Over-night treated culture, bacterial titers (CFU/ml) and OD600; format: cell-based, Staphylococcus aureus

## O=C(O)c1ccc(F)c(F)c1Nc1ccc(I)cc1Cl [PD-0184264, 2-(2-chloro-4-iodophenylamino)-N-3,4-difluoro benzoic acid]
[1]
  CC50 at 24 h: > 1.58 mM
[2]
  sensitivity of growth (OD600, bacterial titers): sensitive
[3]
  sensitivity of growth (OD600, bacterial titers): sensitive
A549 cells
  cell toxicity (cell viability, LDH release): does not induce cell toxicity
[4]; 25 mg/kg per os, 8 h interval, 24 h post infection
  effect on virus titer in the lung (FIG. 1): same effect as 150 mg/kg CI-1040
[4]; 25 and 75 mg/kg
  efficacy in vivo by oral administration (Example 1): effective
S. aureus strain 6850
  bacterial growth under heat stress (bacterial titers): strongly impaired
MRSA strain USA300 [5]
  bacterial growth under heat stress (bacterial titers): strongly impaired
S. aureus 6850; S. aureus 6850, 3 h and 6 h post inoculation
  inhibition of bacterial growth, compared with U0126 and gentamicin (0.5 or 2 μg/ml): strongest inhibition of bacterial growth
S. aureus 6850; cultures further incubated without substances reached turbidity of solvent culture
  mode of antibacterial action after medium exchange: bacteriostatic rather than a bactericidal action
MRSA strain USA300 [6]; 10 μM, over night, MRSA USA300
  reduction of bacterial growth (FIG. 4): significant reduction of growth
MRSA strain USA300 [6]; 20 μM, over night, MRSA USA300, CFU/ml
  reduction of bacterial titers: 1.5-2 orders of a magnitude
MRSA strain USA300 [6]; over night treatment, MRSA USA300, vs solvent
  effect on bacterial titers (CFU/ml): very strong reduction in bacterial load
